Patent publication US7220580B2, “Sphingosine 1-phosphate receptor gene, sppr” (University of South Florida, priority 2000, dated 2007)

What was measured:
[1] = biological target: T1, EDG-8 (Rattus norvegicus, UniProt Q9JKM5); conditions: CHO cells expressing EDG-8; cited from earlier work
T1 construct: host or cells: CHO cells

[2] = biological target: T1, EDG-8; conditions: CHO cells expressing EDG-8; cited from earlier work; remark: listed apart in the source
[3] = biological target: T2, S1P5 (Homo sapiens, UniProt Q9H228); assay: Erk2 kinase assay in HEK293 cells transiently transfected with S1P5; assay type: cell-based; conditions: HEK293 cells transiently transfected with S1P5 and HA-Erk2, 1 μM ligand for 5 min, MBP as substrate
T2 construct: The largest PCR product contains a complete open reading frame; expressed in transfected cells; host or cells: HEK293
Protocol: Vector plasmid is added to each transfection reaction to equalize the amount of total DNA (2.1 μg). […] HA-ERK2 is immunoprecipitated from one half of each whole cell lysate and used for measuring the kinase activity utilizing MBP as substrate, while HA-ERK2 immunoprecipitated from the other half is used for determining the amount of ERK2 protein in the immune complex. FIG. 10 illustrates a representative autoradiogram of ^32P incorporation into MBP catalyzed by HA-ERK 2 immunoprecipitated from transiently transfected cells treated as indicated. […] Cell Culture and Transfection. HEK293 cells are grown in Dulbecco's modified eagle's medium supplemented with 10% fetal bovine serum. The cells are transiently transfected with a plasmid encoding HA-tagged Erk2 (HA-Erk2) and either pcDNA 3 S1P5 or pcDNA 3.1. Transfection is achieved by incubating the cells in 60 mm plates with plasmid/Lipofectamine complexes (2.1 μg total DNA/12 μl Lipofectamine) in serum-free medium for 5 hours. The DNA complexes are removed from the medium and the cells are starved overnight in serum-free medium and then used for experimentation. Erk2 Kinase Assay. […] The cells are lysed in buffer containing 50 mM Tris-HC1 pH 7.5, 150 mM NaCl, 1 mM EDTA, 1 mM EGTA, 1 mM DTT, 1% Triton X-100, 25 mM NaF, 5 mM sodium pyrophosphate, 20 mM ρ-nitrophenyl phosphate, 2 μg/mL leupeptin, and 100 μg/mL phenylmethylsulfonyl fluoride. HA-Erk2 is immunoprecipitated with the monoclonal antibody HA.11 (Convance, Richmond, Calif.). […] The reaction is terminated with SDS-containing gel-loading buffer and the reaction mixtures are analyzed on 11% SDS-polyacrylamide gels. The gels are processed by autoradiography. The bands on the gels are quantitated with a PhosphorImager. Erk2 protein in the immunoprecipitate is determined by immunoblotting with a polyclonal antibody to Erk2.

T2 sequence (Q9H228 whole entry): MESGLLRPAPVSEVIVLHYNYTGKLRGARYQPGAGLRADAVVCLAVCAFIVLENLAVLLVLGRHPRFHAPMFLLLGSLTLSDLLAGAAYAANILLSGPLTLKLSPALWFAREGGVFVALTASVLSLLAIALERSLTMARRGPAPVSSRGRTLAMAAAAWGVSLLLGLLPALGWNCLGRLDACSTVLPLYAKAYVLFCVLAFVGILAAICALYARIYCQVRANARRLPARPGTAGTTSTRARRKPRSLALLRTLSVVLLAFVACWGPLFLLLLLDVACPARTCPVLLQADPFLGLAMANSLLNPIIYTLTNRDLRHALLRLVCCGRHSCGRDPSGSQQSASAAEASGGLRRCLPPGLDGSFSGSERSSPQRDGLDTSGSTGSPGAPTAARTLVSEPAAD
T1 sequence (Q9JKM5 whole entry): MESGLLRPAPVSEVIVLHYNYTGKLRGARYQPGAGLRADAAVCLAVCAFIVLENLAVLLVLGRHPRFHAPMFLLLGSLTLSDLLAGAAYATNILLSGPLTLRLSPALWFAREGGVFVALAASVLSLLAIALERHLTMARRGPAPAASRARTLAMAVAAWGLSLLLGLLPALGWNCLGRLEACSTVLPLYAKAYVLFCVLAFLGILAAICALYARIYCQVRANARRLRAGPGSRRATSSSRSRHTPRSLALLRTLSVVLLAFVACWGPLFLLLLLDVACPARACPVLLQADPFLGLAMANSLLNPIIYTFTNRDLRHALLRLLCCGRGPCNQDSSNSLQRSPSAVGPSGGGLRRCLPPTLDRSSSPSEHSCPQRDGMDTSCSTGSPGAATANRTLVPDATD

activation of Erk2 activity [3] | activation of Erk2 activity ([3]; listed as sphingosine-1-phosphate) | activation of Erk2 activity ([3]; listed as lysophosphatidic acid) | Compound | cell proliferation [1] | serum-induced activation of Erk1/2 [2]
activates Erk2 | activation of Erk2 activity | – | CCCCCCCCCCCCC/C=C/[C@@H](O)[C@@H](N)COP(=O)(O)O [S1P, sphingosine-1-phosphate] | inhibits the cell proliferation | inhibited
not | – | does not | lysophosphatidic acid [LPA] | – | –
